This is an account of results in ChEMBL document CHEMBL1140747, “Discovery of potent and selective dipeptidyl peptidase IV inhibitors derived from beta-aminoamides bearing subsituted triazolopiperazines” (J Med Chem, 2008).

Usually IC50 stands for the concentration at which inhibition is half-maximal. A higher IC50 goes with weaker potency.

Experiment [1] concerns the target Xaa-Pro aminopeptidase 1 (Homo sapiens, UniProt Q9NQW7). As to the kind of experiment: Inhibition of amino peptidase P.
The target of experiment [2] is T1, Xaa-Pro dipeptidase (Homo sapiens, UniProt P12955).
T1 sequence (P12955 whole entry): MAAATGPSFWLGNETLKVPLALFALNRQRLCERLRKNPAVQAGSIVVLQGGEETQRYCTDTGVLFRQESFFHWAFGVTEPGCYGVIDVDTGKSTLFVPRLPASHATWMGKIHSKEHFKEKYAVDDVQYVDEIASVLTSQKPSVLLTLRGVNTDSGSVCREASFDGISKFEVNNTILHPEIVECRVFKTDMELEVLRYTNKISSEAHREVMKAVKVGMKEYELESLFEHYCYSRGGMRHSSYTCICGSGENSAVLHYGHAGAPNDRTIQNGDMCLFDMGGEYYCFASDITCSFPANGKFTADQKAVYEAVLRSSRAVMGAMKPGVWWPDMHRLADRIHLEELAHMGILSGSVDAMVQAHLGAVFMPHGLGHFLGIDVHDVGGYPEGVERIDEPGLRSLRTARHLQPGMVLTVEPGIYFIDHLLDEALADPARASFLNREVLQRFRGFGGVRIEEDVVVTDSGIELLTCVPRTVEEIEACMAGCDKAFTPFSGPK
As to the kind of experiment: Inhibition of prolidase.

Experiment [3] addresses Dipeptidyl peptidase 4 (Homo sapiens, UniProt P27487).
The target of experiment [4] is Dipeptidyl peptidase 8 (Homo sapiens, UniProt Q6V1X1). As to the kind of experiment: Inhibition of DPP8.
Chain of Dipeptidyl peptidase 8 (Q6V1X1 whole entry): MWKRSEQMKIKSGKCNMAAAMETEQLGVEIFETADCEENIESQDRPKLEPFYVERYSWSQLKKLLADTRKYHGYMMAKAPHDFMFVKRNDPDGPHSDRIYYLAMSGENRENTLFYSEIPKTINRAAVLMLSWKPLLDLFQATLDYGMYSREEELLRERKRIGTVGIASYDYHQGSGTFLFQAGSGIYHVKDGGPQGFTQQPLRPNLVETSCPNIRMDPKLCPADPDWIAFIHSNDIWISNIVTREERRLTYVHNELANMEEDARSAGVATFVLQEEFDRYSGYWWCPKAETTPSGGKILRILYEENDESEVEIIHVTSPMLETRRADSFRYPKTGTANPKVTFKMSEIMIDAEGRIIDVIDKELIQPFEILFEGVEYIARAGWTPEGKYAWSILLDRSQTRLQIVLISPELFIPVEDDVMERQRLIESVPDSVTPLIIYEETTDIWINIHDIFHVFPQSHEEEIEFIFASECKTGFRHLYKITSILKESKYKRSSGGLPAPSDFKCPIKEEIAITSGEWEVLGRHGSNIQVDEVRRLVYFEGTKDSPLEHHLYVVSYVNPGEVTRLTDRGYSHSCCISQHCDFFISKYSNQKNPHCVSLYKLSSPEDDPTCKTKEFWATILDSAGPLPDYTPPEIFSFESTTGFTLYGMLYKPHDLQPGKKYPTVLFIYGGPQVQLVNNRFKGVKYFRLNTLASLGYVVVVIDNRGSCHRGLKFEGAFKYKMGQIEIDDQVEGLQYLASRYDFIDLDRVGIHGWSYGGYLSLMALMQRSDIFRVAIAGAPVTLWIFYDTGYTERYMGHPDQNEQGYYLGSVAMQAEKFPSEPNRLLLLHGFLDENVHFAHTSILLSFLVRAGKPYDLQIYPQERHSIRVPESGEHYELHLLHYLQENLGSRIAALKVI
In experiment [5] the target is T2, Prolyl endopeptidase FAP (Homo sapiens, UniProt Q12884).
T2 sequence (Q12884 whole entry): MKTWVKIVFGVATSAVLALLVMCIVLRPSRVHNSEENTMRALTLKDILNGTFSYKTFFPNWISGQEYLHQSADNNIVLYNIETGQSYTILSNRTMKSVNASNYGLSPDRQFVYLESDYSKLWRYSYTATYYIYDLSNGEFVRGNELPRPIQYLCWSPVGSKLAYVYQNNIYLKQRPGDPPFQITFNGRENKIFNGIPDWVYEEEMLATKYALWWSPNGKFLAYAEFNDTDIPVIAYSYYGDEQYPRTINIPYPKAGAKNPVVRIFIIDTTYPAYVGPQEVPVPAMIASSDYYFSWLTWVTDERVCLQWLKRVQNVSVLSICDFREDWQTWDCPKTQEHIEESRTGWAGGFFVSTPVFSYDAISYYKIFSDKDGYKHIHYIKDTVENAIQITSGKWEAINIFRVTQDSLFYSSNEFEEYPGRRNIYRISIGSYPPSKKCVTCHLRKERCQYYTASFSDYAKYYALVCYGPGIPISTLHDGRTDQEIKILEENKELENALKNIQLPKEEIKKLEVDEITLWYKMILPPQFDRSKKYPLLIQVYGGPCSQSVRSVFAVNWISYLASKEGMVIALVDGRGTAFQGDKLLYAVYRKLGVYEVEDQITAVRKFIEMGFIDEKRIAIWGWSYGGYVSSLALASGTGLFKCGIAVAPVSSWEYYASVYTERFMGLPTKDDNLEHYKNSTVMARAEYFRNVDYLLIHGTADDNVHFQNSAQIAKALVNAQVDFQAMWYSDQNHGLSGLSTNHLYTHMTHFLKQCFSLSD
Kind of experiment: Inhibition of FAP.

Experiment [6] addresses Dipeptidyl peptidase 2 (Homo sapiens, UniProt Q9UHL4). Kind of experiment: Inhibition of QPP.
The target in experiment [7] is Dipeptidyl peptidase 9 (Homo sapiens, UniProt Q86TI2). Kind of experiment: Inhibition of DPP9.
Chain of Dipeptidyl peptidase 9 (Q86TI2 whole entry): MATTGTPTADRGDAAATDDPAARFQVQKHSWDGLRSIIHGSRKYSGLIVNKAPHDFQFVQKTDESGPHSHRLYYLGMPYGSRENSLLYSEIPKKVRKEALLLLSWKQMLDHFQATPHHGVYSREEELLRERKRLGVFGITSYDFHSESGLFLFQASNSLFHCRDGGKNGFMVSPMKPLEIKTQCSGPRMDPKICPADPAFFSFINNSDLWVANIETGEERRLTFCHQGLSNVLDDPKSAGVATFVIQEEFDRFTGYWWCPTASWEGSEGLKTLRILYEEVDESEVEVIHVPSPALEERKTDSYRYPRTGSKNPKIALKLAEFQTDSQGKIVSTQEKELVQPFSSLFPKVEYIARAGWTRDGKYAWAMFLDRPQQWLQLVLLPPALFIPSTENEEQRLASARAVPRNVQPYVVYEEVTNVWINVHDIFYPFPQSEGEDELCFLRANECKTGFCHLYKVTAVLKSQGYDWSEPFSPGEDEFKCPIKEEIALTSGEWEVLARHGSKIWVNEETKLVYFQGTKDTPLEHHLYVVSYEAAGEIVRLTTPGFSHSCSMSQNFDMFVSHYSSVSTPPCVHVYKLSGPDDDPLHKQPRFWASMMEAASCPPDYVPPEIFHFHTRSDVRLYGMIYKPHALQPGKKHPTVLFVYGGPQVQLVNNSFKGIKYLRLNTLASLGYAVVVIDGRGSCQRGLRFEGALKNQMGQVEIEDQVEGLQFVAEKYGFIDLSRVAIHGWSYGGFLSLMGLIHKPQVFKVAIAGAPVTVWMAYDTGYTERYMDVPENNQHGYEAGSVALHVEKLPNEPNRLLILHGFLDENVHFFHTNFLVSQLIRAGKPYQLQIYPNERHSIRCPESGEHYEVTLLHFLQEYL

Chain of Dipeptidyl peptidase 4 (P27487 whole entry): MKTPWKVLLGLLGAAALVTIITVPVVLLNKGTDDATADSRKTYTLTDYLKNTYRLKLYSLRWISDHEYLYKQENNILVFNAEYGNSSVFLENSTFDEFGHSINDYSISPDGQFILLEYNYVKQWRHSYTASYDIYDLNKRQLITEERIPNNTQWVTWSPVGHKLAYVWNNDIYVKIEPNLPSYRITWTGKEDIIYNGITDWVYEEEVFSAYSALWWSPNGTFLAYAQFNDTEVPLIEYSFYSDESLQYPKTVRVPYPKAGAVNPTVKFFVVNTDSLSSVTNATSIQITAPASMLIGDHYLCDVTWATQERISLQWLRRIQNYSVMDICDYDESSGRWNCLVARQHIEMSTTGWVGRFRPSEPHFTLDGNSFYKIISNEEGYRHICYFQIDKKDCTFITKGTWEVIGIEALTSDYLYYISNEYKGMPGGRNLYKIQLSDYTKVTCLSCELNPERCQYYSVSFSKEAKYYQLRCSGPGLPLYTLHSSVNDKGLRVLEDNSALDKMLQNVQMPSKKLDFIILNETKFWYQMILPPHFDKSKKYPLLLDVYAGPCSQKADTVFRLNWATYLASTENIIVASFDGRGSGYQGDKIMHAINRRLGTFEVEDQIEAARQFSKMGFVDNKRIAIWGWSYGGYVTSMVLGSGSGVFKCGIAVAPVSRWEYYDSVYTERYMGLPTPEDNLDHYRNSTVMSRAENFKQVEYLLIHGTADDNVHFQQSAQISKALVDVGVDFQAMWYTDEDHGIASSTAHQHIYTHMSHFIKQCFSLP
Chain of Xaa-Pro aminopeptidase 1 (Q9NQW7 whole entry): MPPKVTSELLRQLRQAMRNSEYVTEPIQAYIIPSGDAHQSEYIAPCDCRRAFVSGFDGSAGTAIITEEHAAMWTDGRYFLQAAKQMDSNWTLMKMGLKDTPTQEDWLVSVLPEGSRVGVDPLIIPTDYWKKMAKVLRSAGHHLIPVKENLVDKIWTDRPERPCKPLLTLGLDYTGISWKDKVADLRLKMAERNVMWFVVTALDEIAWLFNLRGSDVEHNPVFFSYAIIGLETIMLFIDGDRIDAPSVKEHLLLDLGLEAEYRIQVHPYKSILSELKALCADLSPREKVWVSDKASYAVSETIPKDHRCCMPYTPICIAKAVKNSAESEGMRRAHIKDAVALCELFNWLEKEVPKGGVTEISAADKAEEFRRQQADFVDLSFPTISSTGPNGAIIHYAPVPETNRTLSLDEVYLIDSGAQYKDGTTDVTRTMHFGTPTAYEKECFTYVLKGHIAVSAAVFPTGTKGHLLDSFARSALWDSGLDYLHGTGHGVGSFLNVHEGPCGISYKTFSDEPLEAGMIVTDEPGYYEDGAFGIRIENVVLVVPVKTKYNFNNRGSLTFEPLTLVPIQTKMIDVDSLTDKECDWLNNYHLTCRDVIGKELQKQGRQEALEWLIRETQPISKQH

Consider `CC1(C)c2nnc(C(F)(F)F)n2CCN1C(=O)C[C@H](N)Cc1cc(F)c(F)cc1F`, for which the IC50 is > 10 µM in experiment [1]; > 10 µM in experiment [2]; 0.175 µM in experiment [3]; 6 µM in experiment [4]; > 10 µM in experiment [5]; 23 µM in experiment [6]. The molecule further gave an IC50 in experiment [7] of 20 µM.

For `C=CCC1c2nnc(C(F)(F)F)n2CCN1C(=O)C[C@H](N)Cc1cc(F)c(F)cc1F` (stereo in doubt; 40a), the IC50 was > 10 µM in experiment [1]; > 10 µM in experiment [2]; 0.0015 µM in experiment [3]; 3 µM in experiment [4]; > 10 µM in experiment [5]; 33 µM in experiment [6]. The same molecule had an IC50 in experiment [7] of 41 µM.

As to `N[C@@H](CC(=O)N1CCNCC1)Cc1ccccc1F`, the IC50 in experiment [1] and in experiment [2] was > 10 µM throughout.

For the molecule `N[C@@H](CC(=O)N1CCn2c(nnc2C(F)(F)F)C1Cc1ccccc1)Cc1cc(F)c(F)cc1F` (stereo in doubt; 42b), the 50% inhibitory concentration (IC50) in experiment [1] was > 10 µM; in experiment [2], > 10 µM; in experiment [3], 0.00066 µM; in experiment [4] it was 0.622 µM; in experiment [5], > 10 µM; in experiment [6], 52 µM. Further, the IC50 in experiment [7] worked out at 24 µM.

For `N[C@@H](CC(=O)N1CCn2c(nnc2C(F)(F)F)C1Cc1cc(C(F)(F)F)cc(C(F)(F)F)c1)Cc1cc(F)c(F)cc1F` (stereo in doubt; 48a), the IC50 is > 10 µM in experiment [1]; > 10 µM in experiment [2]; 0.587 µM in experiment [3]; > 100 µM in experiment [4]; > 10 µM in experiment [5]; > 100 µM in experiment [6]. Besides, the IC50 in experiment [7] was > 100 µM.

Consider `CN(C)C(=O)CC1c2nnc(C(F)(F)F)n2CCN1C(=O)C[C@H](N)Cc1cc(F)c(F)cc1F` (stereo in doubt; 41a), for which the half-inhibitory concentration (IC50) is > 10 µM in experiment [1]; > 10 µM in experiment [2]; 0.377 µM in experiment [3]; > 100 µM in experiment [4]; > 10 µM in experiment [5]; > 100 µM in experiment [6]. Also, the IC50 in experiment [7] is > 100 µM.

Consider `C[C@H]1c2nnc(C(F)(F)F)n2CCN1C(=O)C[C@H](N)Cc1cc(F)c(F)cc1F`, for which the IC50 in experiment [1] is > 10 µM; in experiment [2] it was > 10 µM; in experiment [3], 0.088 µM; in experiment [4] it was > 100 µM; in experiment [5], > 10 µM; in experiment [6], > 100 µM. The half-inhibitory concentration (IC50) in experiment [7] was > 100 µM.

With `N[C@@H](CC(=O)N1CCn2c(nnc2C(F)(F)F)C1Cc1ccccc1C(F)(F)F)Cc1cc(F)c(F)cc1F` (stereo in doubt; 44b), the IC50 is > 10 µM in experiment [1]; > 10 µM in experiment [2]; 0.00031 µM in experiment [3]; 8 µM in experiment [4]; > 10 µM in experiment [5]; 41 µM in experiment [6]. Moreover, the IC50 in experiment [7] was > 100 µM.

In the case of `N[C@@H](CC(=O)N1CCn2c(nnc2C(F)(F)F)C1C(O)c1ccc(F)cc1)Cc1cc(F)c(F)cc1F` (stereo in doubt; 47a), the IC50 in experiment [1] was > 10 µM; in experiment [2], > 10 µM; in experiment [3], 0.43 µM; in experiment [4] it was > 100 µM; in experiment [5], > 10 µM; in experiment [6], 48 µM. Also, the IC50 in experiment [7] is > 100 µM.

Take `C[C@@H]1Cn2c(nnc2C(F)(F)F)CN1C(=O)C[C@H](N)Cc1cc(F)c(F)cc1F`: the 50% inhibitory concentration (IC50) in experiment [1] was > 10 µM; in experiment [2] it was > 10 µM; in experiment [3], 0.042 µM; in experiment [4] it was 75 µM; in experiment [5], > 10 µM; in experiment [6], > 100 µM. In addition, the concentration for half-maximal inhibition (IC50) in experiment [7] is > 100 µM.

Regarding `N[C@@H](CC(=O)N1CCn2c(nnc2C(F)(F)F)[C@@H]1Cc1ccc(F)cc1)Cc1cc(F)c(F)cc1F`, the 50% inhibitory concentration (IC50) in experiment [1] was > 10 µM; in experiment [2] it was > 10 µM; in experiment [3] it was 0.116 µM; in experiment [4], > 100 µM; in experiment [5], > 10 µM; in experiment [6], 39 µM. In addition, the concentration for half-maximal inhibition (IC50) in experiment [7] is > 100 µM.

For `C[C@H]1c2nnc(C(F)(F)F)n2[C@@H](C)CN1C(=O)C[C@H](N)Cc1cc(F)c(F)cc1F`, the 50% inhibitory concentration (IC50) in experiment [1] is > 10 µM; in experiment [2], > 10 µM; in experiment [3] it was 0.209 µM; in experiment [4] it was > 100 µM; in experiment [5], > 10 µM; in experiment [6] it was > 100 µM. The concentration for half-maximal inhibition (IC50) in experiment [7] was > 100 µM.

`CCC1c2nnc(C(F)(F)F)n2CCN1C(=O)C[C@H](N)Cc1cc(F)c(F)cc1F` (stereo in doubt; 38a): the IC50 in experiment [1] was > 10 µM; in experiment [2] it was > 10 µM; in experiment [3], 0.113 µM; in experiment [4] it was > 100 µM; in experiment [5], > 10 µM; in experiment [6], > 100 µM. Further, the half-maximal inhibitory concentration (IC50) in experiment [7] was > 100 µM.

Regarding `N[C@@H](CC(=O)N1CCn2c(nnc2C(F)(F)F)C1Cc1ccccc1F)Cc1cc(F)c(F)cc1F` (stereo in doubt; 45a), the IC50 in experiment [1] was > 10 µM; in experiment [2] it was > 10 µM; in experiment [3], 0.131 µM; in experiment [4], > 100 µM; in experiment [5], > 10 µM; in experiment [6], 76 µM. Besides, the IC50 in experiment [7] is > 100 µM.

As to `CC1c2nnc(C(F)(F)F)n2C(C)CN1C(=O)C[C@H](N)Cc1cc(F)c(F)cc1F` (stereo in doubt; 16d), the IC50 in experiment [1] was > 10 µM; in experiment [2] it was > 10 µM; in experiment [3], 0.011 µM; in experiment [4] it was 44 µM; in experiment [5], > 10 µM; in experiment [6] it was > 100 µM. In experiment [7], this molecule registered a half-maximal inhibitory concentration (IC50) of 62 µM.

Take `N[C@@H](CC(=O)N1CCn2c(nnc2C(F)(F)F)C1CC(F)(F)F)Cc1cc(F)c(F)cc1F` (stereo in doubt; 39a): the IC50 was > 10 µM in experiment [1]; > 10 µM in experiment [2]; 0.123 µM in experiment [3]; > 100 µM in experiment [4]; > 10 µM in experiment [5]; 30 µM in experiment [6]. For the same molecule, the IC50 in experiment [7] was > 100 µM.

Consider `C[C@H]1CN(C(=O)C[C@H](N)Cc2cc(F)c(F)cc2F)Cc2ccc(C(F)(F)F)n21`, for which the 50% inhibitory concentration (IC50) in experiment [1] is > 10 µM; in experiment [2], > 10 µM; in experiment [3], 0.023 µM; in experiment [4], 23 µM; in experiment [5] it was > 10 µM; in experiment [6], > 100 µM. The same molecule gave a 50% inhibitory concentration (IC50) in experiment [7] of 23 µM.

As to `N[C@@H](CC(=O)N1CCn2c(nnc2C(F)(F)F)C1C(O)c1ccc(F)cc1)Cc1cc(F)c(F)cc1F` (stereo in doubt; 47c), the IC50 in experiment [1] is > 10 µM; in experiment [2], > 10 µM; in experiment [3], 0.09 µM; in experiment [4], 40 µM; in experiment [5] it was > 10 µM; in experiment [6] it was > 100 µM. In addition, the 50% inhibitory concentration (IC50) in experiment [7] was > 100 µM.

In the case of `CC1(C)CN(C(=O)C[C@H](N)Cc2cc(F)c(F)cc2F)Cc2nnc(C(F)(F)F)n21`, the IC50 in experiment [1] was > 10 µM; in experiment [2], > 10 µM; in experiment [3], 0.092 µM; in experiment [4], 66 µM; in experiment [5] it was > 10 µM; in experiment [6] it was 77 µM. In experiment [7], this molecule came in with an IC50 of 54 µM.

Regarding `N[C@@H](CC(=O)N1CCNC[C@H]1Cc1ccccc1)Cc1ccccc1F`, the concentration for half-maximal inhibition (IC50) in experiment [1] and in experiment [2] was > 10 µM each time.
